{"source": "patent US6706740B2", "about": "“Fungicidal heterocyclic aromatic amides and their compositions, methods of use and preparation” (Dow AgroSciences LLC, priority 1999, dated 2004)", "data": [{"tested_on": "Erysiphe graminis—ERYSGT", "assay": "Powdery Mildew of Wheat, in vivo whole plant, 24 Hour Protectant", "conditions": "Erysiphe; 100 ppm spray, 24 hour protectant, wheat; control of fungal infection vs untreated plants; read-out: ERYSGT in vivo 1 Day Protectant", "units": {"pest or weed control at 100 ppm": "%"}, "values": [{"smiles": "COc1ccnc(C(=O)N[C@@H]2CC3CC2C2C(=O)N(CC(C)C)C(=O)C32)c1O", "note": "(some centres unmarked) [Compound 303]", "pest or weed control at 100 ppm": "< 25"}, {"smiles": "O=C(N[C@H]1CC2CC1[C@@H]1CCC[C@H]21)c1ncccc1O", "note": "(some centres unmarked) [Compound 206]", "pest or weed control at 100 ppm": "< 25"}, {"smiles": "COc1ccnc(C(=O)NC2COC(C)C2)c1O", "note": "(centres unmarked) [Compound 310]", "pest or weed control at 100 ppm": "25 to 74"}]}, {"tested_on": "Erysiphe graminis—ERYSGT", "assay": "Powdery Mildew of Wheat, in vivo whole plant, 24 Hour Protectant", "conditions": "Erysiphe; 100 ppm spray, wheat, 24 hour protectant, % control of fungal infection vs untreated plants; read-out: ERYSGT in vivo 1 Day Protectant", "units": {"pest or weed control at 100 ppm": "%"}, "values": [{"smiles": "COc1ccnc(C(=O)N[C@H]2COC(=O)[C@H](Cc3ccccc3)[C@@H](OC(=O)C(C)C)[C@H](C)OC2=O)c1OC(=O)c1cnc(Cl)c(Cl)c1", "note": "[Compound 670]", "pest or weed control at 100 ppm": "< 25"}]}, {"tested_on": "Leptosphaeria nodorum—LEPTNO", "assay": "Glume Blotch of Wheat, in vivo whole plant, 24 Hour Protectant", "conditions": "100 ppm spray, wheat, 24 hour protectant, % control of fungal infection vs untreated plants", "values": [{"smiles": "COc1ccnc(C(=O)N[C@H]2COC(=O)[C@H](Cc3ccccc3)[C@@H](OC(=O)C(C)C)[C@H](C)OC2=O)c1OC(=O)c1cnc(Cl)c(Cl)c1", "note": "[Compound 670]", "LEPTNO in vivo 1 Day Protectant": "+ +"}]}, {"tested_on": "Leptosphaeria nodorum—LEPTNO", "assay": "Glume Blotch of Wheat, in vivo whole plant, 24 Hour Protectant", "conditions": "Leptosphaeria; 100 ppm spray, 24 hour protectant, wheat; control of fungal infection vs untreated plants; read-out: LEPTNO in vivo 1 Day Protectant", "units": {"pest or weed control at 100 ppm": "%"}, "values": [{"smiles": "COc1ccnc(C(=O)N[C@@H]2CC3CC2C2C(=O)N(CC(C)C)C(=O)C32)c1O", "note": "(some centres unmarked) [Compound 303]", "pest or weed control at 100 ppm": "25 to 74"}, {"smiles": "O=C(N[C@H]1CC2CC1[C@@H]1CCC[C@H]21)c1ncccc1O", "note": "(some centres unmarked) [Compound 206]", "pest or weed control at 100 ppm": "< 25"}, {"smiles": "COc1ccnc(C(=O)NC2COC(C)C2)c1O", "note": "(centres unmarked) [Compound 310]", "pest or weed control at 100 ppm": "< 25"}]}, {"tested_on": "Stagonospora nodorum (Leptosphaeria nodorum—LEPTNO)", "assay": "In vitro fungal growth inhibition, Stagonospora nodorum (LEPTNO)", "type": "cell-based", "conditions": "Leptosphaeria; 25 ppm in growth medium; read-out: LEPTNO in vitro Growth Inhibition", "units": {"inhibition at 25 ppm": "%"}, "values": [{"smiles": "COc1ccnc(C(=O)N[C@H]2COC(=O)[C@H](Cc3ccccc3)[C@@H](OC(=O)C(C)C)[C@H](C)OC2=O)c1OC(=O)c1cnc(Cl)c(Cl)c1", "note": "[Compound 670]", "inhibition at 25 ppm": "> 80"}, {"smiles": "COc1ccnc(C(=O)N[C@@H]2CC3CC2C2C(=O)N(CC(C)C)C(=O)C32)c1O", "note": "(some centres unmarked) [Compound 303]", "inhibition at 25 ppm": "< 80"}, {"smiles": "O=C(N[C@H]1CC2CC1[C@@H]1CCC[C@H]21)c1ncccc1O", "note": "(some centres unmarked) [Compound 206]", "inhibition at 25 ppm": "> 80"}, {"smiles": "COc1ccnc(C(=O)NC2COC(C)C2)c1O", "note": "(centres unmarked) [Compound 310]", "inhibition at 25 ppm": "< 80"}]}, {"tested_on": "Mycosphaerella graminicola (Septoria tritici—SEPTTR)", "assay": "In vitro fungal growth inhibition, Mycosphaerella graminicola (SEPTTR)", "type": "cell-based", "conditions": "Zymoseptoria tritici; 25 ppm in growth medium; read-out: SEPTTR in vitro Growth Inhibition", "units": {"inhibition at 25 ppm": "%"}, "values": [{"smiles": "COc1ccnc(C(=O)N[C@H]2COC(=O)[C@H](Cc3ccccc3)[C@@H](OC(=O)C(C)C)[C@H](C)OC2=O)c1OC(=O)c1cnc(Cl)c(Cl)c1", "note": "[Compound 670]", "inhibition at 25 ppm": "< 80"}, {"smiles": "COc1ccnc(C(=O)N[C@@H]2CC3CC2C2C(=O)N(CC(C)C)C(=O)C32)c1O", "note": "(some centres unmarked) [Compound 303]", "inhibition at 25 ppm": "< 80"}, {"smiles": "O=C(N[C@H]1CC2CC1[C@@H]1CCC[C@H]21)c1ncccc1O", "note": "(some centres unmarked) [Compound 206]", "inhibition at 25 ppm": "> 80"}, {"smiles": "COc1ccnc(C(=O)NC2COC(C)C2)c1O", "note": "(centres unmarked) [Compound 310]", "inhibition at 25 ppm": "< 80"}]}, {"tested_on": "Rhizoctonia solani (RHIZSO)", "assay": "microbe, parasite or virus in culture", "type": "cell-based", "conditions": "Rhizoctonia solani, read-out: RHIZSO in vitro Growth Inhibition", "units": {"inhibition at 25 ppm": "%"}, "values": [{"smiles": "COc1ccnc(C(=O)N[C@H]2COC(=O)[C@H](Cc3ccccc3)[C@@H](OC(=O)C(C)C)[C@H](C)OC2=O)c1OC(=O)c1cnc(Cl)c(Cl)c1", "note": "[Compound 670]", "inhibition at 25 ppm": "< 80"}, {"smiles": "COc1ccnc(C(=O)N[C@@H]2CC3CC2C2C(=O)N(CC(C)C)C(=O)C32)c1O", "note": "(some centres unmarked) [Compound 303]", "inhibition at 25 ppm": "< 80"}, {"smiles": "O=C(N[C@H]1CC2CC1[C@@H]1CCC[C@H]21)c1ncccc1O", "note": "(some centres unmarked) [Compound 206]", "inhibition at 25 ppm": "> 80"}, {"smiles": "COc1ccnc(C(=O)NC2COC(C)C2)c1O", "note": "(centres unmarked) [Compound 310]", "inhibition at 25 ppm": "< 80"}]}, {"tested_on": "Phytophthora infestans (PHYTIN)", "assay": "microbe, parasite or virus in culture", "type": "cell-based", "conditions": "Phytophthora infestans, read-out: PHYTIN in vitro Growth Inhibition", "units": {"inhibition at 25 ppm": "%"}, "values": [{"smiles": "COc1ccnc(C(=O)N[C@H]2COC(=O)[C@H](Cc3ccccc3)[C@@H](OC(=O)C(C)C)[C@H](C)OC2=O)c1OC(=O)c1cnc(Cl)c(Cl)c1", "note": "[Compound 670]", "inhibition at 25 ppm": "> 80"}, {"smiles": "COc1ccnc(C(=O)N[C@@H]2CC3CC2C2C(=O)N(CC(C)C)C(=O)C32)c1O", "note": "(some centres unmarked) [Compound 303]", "inhibition at 25 ppm": "< 80"}, {"smiles": "O=C(N[C@H]1CC2CC1[C@@H]1CCC[C@H]21)c1ncccc1O", "note": "(some centres unmarked) [Compound 206]", "inhibition at 25 ppm": "< 80"}, {"smiles": "COc1ccnc(C(=O)NC2COC(C)C2)c1O", "note": "(centres unmarked) [Compound 310]", "inhibition at 25 ppm": "< 80"}]}, {"tested_on": "Magnaporthe grisea (Pyricularia oryzae—PYRIOR)", "assay": "microbe, parasite or virus in culture", "type": "cell-based", "conditions": "Pyricularia oryzae, read-out: PYRIOR in vitro Growth Inhibition", "units": {"inhibition at 25 ppm": "%"}, "values": [{"smiles": "COc1ccnc(C(=O)N[C@H]2COC(=O)[C@H](Cc3ccccc3)[C@@H](OC(=O)C(C)C)[C@H](C)OC2=O)c1OC(=O)c1cnc(Cl)c(Cl)c1", "note": "[Compound 670]", "inhibition at 25 ppm": "< 80"}, {"smiles": "COc1ccnc(C(=O)N[C@@H]2CC3CC2C2C(=O)N(CC(C)C)C(=O)C32)c1O", "note": "(some centres unmarked) [Compound 303]", "inhibition at 25 ppm": "< 80"}, {"smiles": "O=C(N[C@H]1CC2CC1[C@@H]1CCC[C@H]21)c1ncccc1O", "note": "(some centres unmarked) [Compound 206]", "inhibition at 25 ppm": "> 80"}, {"smiles": "COc1ccnc(C(=O)NC2COC(C)C2)c1O", "note": "(centres unmarked) [Compound 310]", "inhibition at 25 ppm": "< 80"}]}, {"tested_on": "Septoria tritici—SEPTTR", "assay": "Leaf Blotch of Wheat, in vivo whole plant, 24 Hour Protectant", "conditions": "100 ppm spray, wheat, 24 hour protectant, % control of fungal infection vs untreated plants", "values": [{"smiles": "COc1ccnc(C(=O)N[C@H]2COC(=O)[C@H](Cc3ccccc3)[C@@H](OC(=O)C(C)C)[C@H](C)OC2=O)c1OC(=O)c1cnc(Cl)c(Cl)c1", "note": "[Compound 670]", "SEPTTR in vivo 1 Day Protectant": "+ +"}]}, {"tested_on": "Septoria tritici—SEPTTR", "assay": "Leaf Blotch of Wheat, in vivo whole plant, 24 Hour Protectant", "conditions": "Zymoseptoria tritici, 24 h, 100 ppm spray, 24 hour protectant, wheat; control of fungal infection vs untreated plants; read-out: SEPTTR in vivo 1 Day Protectant", "units": {"pest or weed control at 100 ppm": "%"}, "values": [{"smiles": "COc1ccnc(C(=O)N[C@@H]2CC3CC2C2C(=O)N(CC(C)C)C(=O)C32)c1O", "note": "(some centres unmarked) [Compound 303]", "pest or weed control at 100 ppm": "25 to 74"}, {"smiles": "O=C(N[C@H]1CC2CC1[C@@H]1CCC[C@H]21)c1ncccc1O", "note": "(some centres unmarked) [Compound 206]", "pest or weed control at 100 ppm": "< 25"}, {"smiles": "COc1ccnc(C(=O)NC2COC(C)C2)c1O", "note": "(centres unmarked) [Compound 310]", "pest or weed control at 100 ppm": "< 25"}]}, {"tested_on": "Phytophthora infestans—PHYTIN", "assay": "whole plant or invertebrate", "type": "in vivo", "conditions": "Phytophthora, in Solanum lycopersicum, 24 h, read-out: PHYTIN in vivo 1 Day Protectant", "units": {"pest or weed control at 100 ppm": "%"}, "values": [{"smiles": "COc1ccnc(C(=O)N[C@H]2COC(=O)[C@H](Cc3ccccc3)[C@@H](OC(=O)C(C)C)[C@H](C)OC2=O)c1OC(=O)c1cnc(Cl)c(Cl)c1", "note": "[Compound 670]", "pest or weed control at 100 ppm": "< 25"}, {"smiles": "COc1ccnc(C(=O)N[C@@H]2CC3CC2C2C(=O)N(CC(C)C)C(=O)C32)c1O", "note": "(some centres unmarked) [Compound 303]", "pest or weed control at 100 ppm": "25 to 74"}, {"smiles": "O=C(N[C@H]1CC2CC1[C@@H]1CCC[C@H]21)c1ncccc1O", "note": "(some centres unmarked) [Compound 206]", "pest or weed control at 100 ppm": "< 25"}, {"smiles": "COc1ccnc(C(=O)NC2COC(C)C2)c1O", "note": "(centres unmarked) [Compound 310]", "pest or weed control at 100 ppm": "< 25"}]}, {"tested_on": "Ustilago maydis (USTIMA)", "assay": "microbe, parasite or virus in culture", "type": "cell-based", "conditions": "Mycosarcoma maydis, read-out: USTIMA in vitro Growth Inhibition", "units": {"inhibition at 25 ppm": "%"}, "values": [{"smiles": "COc1ccnc(C(=O)N[C@H]2COC(=O)[C@H](Cc3ccccc3)[C@@H](OC(=O)C(C)C)[C@H](C)OC2=O)c1OC(=O)c1cnc(Cl)c(Cl)c1", "note": "[Compound 670]", "inhibition at 25 ppm": "< 80"}, {"smiles": "COc1ccnc(C(=O)N[C@@H]2CC3CC2C2C(=O)N(CC(C)C)C(=O)C32)c1O", "note": "(some centres unmarked) [Compound 303]", "inhibition at 25 ppm": "< 80"}, {"smiles": "O=C(N[C@H]1CC2CC1[C@@H]1CCC[C@H]21)c1ncccc1O", "note": "(some centres unmarked) [Compound 206]", "inhibition at 25 ppm": "< 80"}, {"smiles": "COc1ccnc(C(=O)NC2COC(C)C2)c1O", "note": "(centres unmarked) [Compound 310]", "inhibition at 25 ppm": "< 80"}]}, {"tested_on": "Puccinia recondita—PUCCRT", "assay": "Brown Rust of Wheat, in vivo whole plant, 24 Hour Protectant", "conditions": "100 ppm spray, wheat, 24 hour protectant, % control of fungal infection vs untreated plants", "values": [{"smiles": "COc1ccnc(C(=O)N[C@H]2COC(=O)[C@H](Cc3ccccc3)[C@@H](OC(=O)C(C)C)[C@H](C)OC2=O)c1OC(=O)c1cnc(Cl)c(Cl)c1", "note": "[Compound 670]", "PUCCRT in vivo 1 Day Protectant": "+ +"}]}, {"tested_on": "Puccinia recondita—PUCCRT", "assay": "Brown Rust of Wheat, in vivo whole plant, 24 Hour Protectant", "conditions": "Puccinia; 100 ppm spray, 24 hour protectant, wheat; control of fungal infection vs untreated plants; read-out: PUCCRT in vivo 1 Day Protectant", "units": {"pest or weed control at 100 ppm": "%"}, "values": [{"smiles": "COc1ccnc(C(=O)N[C@@H]2CC3CC2C2C(=O)N(CC(C)C)C(=O)C32)c1O", "note": "(some centres unmarked) [Compound 303]", "pest or weed control at 100 ppm": "< 25"}, {"smiles": "O=C(N[C@H]1CC2CC1[C@@H]1CCC[C@H]21)c1ncccc1O", "note": "(some centres unmarked) [Compound 206]", "pest or weed control at 100 ppm": "< 25"}, {"smiles": "COc1ccnc(C(=O)NC2COC(C)C2)c1O", "note": "(centres unmarked) [Compound 310]", "pest or weed control at 100 ppm": "< 25"}]}]}
